# Experimental data from patent US20230416852A1, “METHODS FOR IDENTIFYING COMPOSITIONS FOR INHIBITING VIRAL INFECTIVITY” (priority 2020, published 2023).
# Assays:
# [1] = test system: Vif induced A3G degradation; test: Western blot of Vif induced A3G degradation in transfected 293T cells; format: cell-based; conditions: 5 μM, FIG. 7A
# Protocol: (§1) An A3G expression vector was co-transfected with Vif, or with the empty vector as control. The A3G expression vector was also co-transfected with either a wild-type viral construct HXB2, Vif deficient viral construct HXB2ΔVif, or pcDNA3.1 (as a control) into 293T cells. Immediately following transfection, 5 μM quinobene was used to treat the 293T cells. After 48 hours post-transfection, culture supernatants were subjected to ultracentrifuge to pellet down the virus. Viral lysates were analyzed by Western blot.
# [2] = test system: CEM cells; test: Presto Blue Cytotoxicity Assay; conditions: read-out: IC50 cytotoxicity, FIG. 6C
# Description: In this assay, live cells show 586 nm fluoresce red. The higher the fluorescence, the more viable the cells are. Therefore, 100% cell death should result in no fluorescence.
# [3] = biological target: T1, Vif function of inhibiting A3G CDA (Human immunodeficiency virus type 1 group M subtype B, UniProt P69723); test: biochemical; format: biochemical, HIV-1; conditions: 10 μM compounds; 20% cutoff stringency, i.e. 20% increase in A3G CDA versus controls; positive control set as 1
# Description: The A3G CDA edits the CCC sequence to predominantly to a CCU sequence. To specifically measure the C to U rate, three reverse primers R1, R2, and R3 were designed in the initial study.
# Using the qPCR-based screening assay described in Example 1, the NCI Diversity Set VI, NCI Mech Set V, and NIH SMR were screened against Vif function of inhibiting A3G. The NCI Diversity Set VI was derived from almost 140,000 compounds available for distribution in the library of the NCI Developmental Therapeutics Program. […] The qPCR-based CDA assay was used to screen the libraries in 96-well plates with negative controls (no A3G and Vif), positive control (no Vif), and 10 μM compounds. Hits were selected at 20% cutoff stringency (above 0.2), i.e., 20% increase in A3G CDA versus controls. Any compounds that restored A3G activity by 20% or more were selected. The positive control was set as 1.
# [4] = biological target: T1, Vif function of inhibiting A3G CDA; format: biochemical, HIV-1; conditions: 5 uM
# Description: This assay detects C to U mutation using a highly specific Stu I restriction enzyme digestion method. FIG. 4A is a schematic diagram of the PCR and restriction digestion-based CDA assay. CCC-150 is converted to CCU-150 under the enzymatic activity of A3G. […] In the presence of Vif, Vif will inhibit A3G enzymatic activity, so that reduced or no CCU-150 will be produced. Therefore, less or no Stu I cutting sites will form, and no digestion will occur.
# The CDA products were subjected to PCR followed by Stu I digestion. The digestion products were applied to a 10% polyacrylamide gel for separation. SYBR Gold was used to visualize the bands. L-Cefixime refers to Compound I identified above.
# [5] = test system: A3G related G to A hypermutation in HIV-1 viral cDNA; test: G to A hypermutation analysis of HIV-1 viral cDNA by next-generation sequencing in SupT1 cells; format: cell-based; conditions: 1 μM; for average G to A hypermutation rate for each position: average over positions; for average G to A hypermutation rate for each position / G to A hypermutation rate / total G to A hypermutation rate: 6 hours, SupT1, HIV IIIB; for total G to A hypermutation rate: total over all positions
# Protocol: The hallmark of A3G antiviral function is to induce G to A hypermutation in HIV cDNA. Therefore, it is very important to evaluate whether quinobene restores A3G's capability to induce G to A hypermutation rates in HIV cDNA. To do this, SupT1 cells were infected with HIV IIIB (350 ng p24)+DMSO or HVI IIIB (350 ng p24)+1 μM quinobene for 6 hours. After infection, DNA was isolated using a DNeasy Blood and Tissue DNA isolation kit (QIAGEN). A 199-bp DNA fragment covering a portion of LTR of HIV-1 was amplified with Taq DNA polymerase using the primers IIIB-F (5′-[…]) and HIV-1-R (5′-[…]). The PCR products were purified by QIAquick PCR Purification Kit (Qiagen) and sent to GENEWIZ, Inc (South Plainfield, NJ) for G to A hypermutation analysis using their Amplicon-EZ service, a next-generation sequencing-based sequencing service, allowed detection of low-frequency variants quantitatively. The G to A hypermutation rate was calculated using CLC Genomic Workbench.
# [6] = test system: A3G viral encapsidation; test: Western blot of A3G viral encapsidation (viral lysates from 293T cells); format: cell-based; conditions: 5 μM, FIG. 7B
# Protocol: as §1
# [7] = test system: HIV IIIB replication; test: HIV IIIB replication in A3G-expressing CEM-GFP cells; format: cell-based, HIV-1; conditions: Human immunodeficiency virus 1, IIIB, FIG. 6A, read-out: IC50 inhibiting HIV IIIB replication
# Protocol: (§2) As discussed above, Vif functions as an inhibitor to A3G antiviral function. […] The A3G-dependent antiviral effects of the hits were tested using CD4+T, CEM-GFP, and CEM SS cell lines. […] The Vif specific inhibitor should show high anti-HIV potency in CEM-GFP cells (and not in CEM SS cells). The CEM-GFP cell line expresses GFP upon HIV infection driven by HIV NL4-3 LTR. It can be used to measure HIV replication (Gervaix A, et at Proc Natl Acad Sci USA. 1997; 94 (9):4653-8.)
# [8] = test system: HIV-1 NL4-3-GFP; test: HIV-1 NL4-3-GFP infection of CEM SS cells (no A3G); format: cell-based; conditions: CEM SS cells compared to CEM-GFP cells, FIG. 6B
# Protocol: as §2
# In FIG. 6B, HIV-1 NL4-3-GFP was used to infect CEM SS cell line.
# T1 sequence (P69723 whole entry): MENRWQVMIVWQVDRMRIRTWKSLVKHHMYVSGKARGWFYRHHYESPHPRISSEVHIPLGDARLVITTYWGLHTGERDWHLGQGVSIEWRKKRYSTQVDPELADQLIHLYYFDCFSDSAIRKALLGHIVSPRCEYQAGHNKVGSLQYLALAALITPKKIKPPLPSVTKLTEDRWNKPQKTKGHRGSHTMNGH
smiles,measurement,setting,value
"O=S(=O)(O)c1cc(N=Nc2cc(S(=O)(=O)O)c3cccnc3c2O)ccc1C=Cc1ccc(N=Nc2cc(S(=O)(=O)O)c3cccnc3c2O)cc1S(=O)(=O)O [Compound IX, quinobene]",influence on Vif induced A3G degradation,[1],minimal to no influence
same,IC50,[2],~50 µM
same,hit for restoring A3G CDA in the presence of Vif,[3],hits and hit
same,restoration of Stu I digestion product,[4],dramatically restored the digestion product
same,positions showing G to A hypermutation rate increases,[5]; 22 out of 26 positions versus untreated,84.6%
same,average G to A hypermutation rate for each position,[5]; listed as Quino,2.32%
same,average G to A hypermutation rate for each position,[5]; listed as quinobene,2.31%
same,G to A hypermutation rate,[5]; position 22,5.51%
same,G to A hypermutation rate,[5]; position 23,0.27%
same,G to A hypermutation rate,[5]; position 35,1.92%
same,G to A hypermutation rate,[5]; position 36,3.87%
same,G to A hypermutation rate,[5]; position 37,0.43%
same,G to A hypermutation rate,[5]; position 47,1.84%
same,G to A hypermutation rate,[5]; position 48,0.38%
same,G to A hypermutation rate,[5]; position 51,0%
same,G to A hypermutation rate,[5]; position 56,0.53%
same,G to A hypermutation rate,[5]; position 61,6.47%
same,G to A hypermutation rate,[5]; position 62,0%
same,G to A hypermutation rate,[5]; position 65,5.65%
same,G to A hypermutation rate,[5]; position 68,0.38%
same,G to A hypermutation rate,[5]; position 71,2.13%
same,G to A hypermutation rate,[5]; position 72,2.1%
same,G to A hypermutation rate,[5]; position 73,0.28%
same,G to A hypermutation rate,[5]; position 78,0.28%
same,G to A hypermutation rate,[5]; position 126,8.57%
same,G to A hypermutation rate,[5]; position 127,0.33%
same,G to A hypermutation rate,[5]; position 136,1.39%
same,G to A hypermutation rate,[5]; position 157,8.43%
same,G to A hypermutation rate,[5]; position 158,0.19%
same,G to A hypermutation rate,[5]; position 168,0.6%
same,G to A hypermutation rate,[5]; position 177,4.16%
same,G to A hypermutation rate,[5]; position 178,2.37%
same,total G to A hypermutation rate,[5]; listed as Quino,58.08%
same,total G to A hypermutation rate,[5]; listed as quinobene,58%
same,effects on A3G viral encapsidation,[6],minimal to no effects
same,IC50,[7],< 0.75 µM
same,antiviral function,[8],lost its antiviral function
